# In patent US20100152188A1, “Novel Heterocyclic Compounds” (priority 2005, published 2010):
# Like-named read-outs stand apart in the source and are kept apart here.
# Legend:
# [1] = test system: HDAC; experiment: HDAC inhibition; assay type: biochemical; settings: for HDAC Inhibition 1 μM: compound at 1 μM; for HDAC Inhibition 10 μM: compound at 10 μM
# [2] = test system: MDAMB-231/U 251; experiment: Anti-cancer screen (MTT), MDAMB-231/U 251; assay type: cell-based; settings: for CC50: read-out: MDAMB-231/U 251 LC50
# Procedure: (§1) Experimental drugs are screened for anti-cancer activity in three cell lines for their GI50, TGI and LC50 values (using five concentrations for each compound). The cell lines are maintained in DMEM containing 10% fetal bovine serum. 96 well micro titer plates are inoculated with cells in 100 µL for 24 hours at 37° C., 5% CO2, 95% air and 100% relative humidity. 5000 HCT 116 cells/well, 5000 NCIH 460 cells/well and 5000 U251 cells/well are plated. A separate plate with these cell lines is also inoculated to determine cell viability before the addition of the compounds (T0).
# (§2) Following 24-hour incubation, experimental drugs are added to the 96 well plates. Each plate contains one of the above cell lines and the following in triplicate: five different concentrations (0.01, 0.1, 1, 10 and 100 µM) of four different compounds, appropriate dilutions of a cytotoxic standard and control (untreated) wells. Compounds are dissolved in DMSO to make 20 mM stock solutions on the day of drug addition and frozen at −20° C. Serial dilutions of these 20 mM stock solutions are made in complete growth medium such that 100 µL of these drug solutions in medium, of final concentrations equaling 0.01, 0.1, 1, 10 and 100 µM can be added to the cells in triplicate. Standard drugs whose anti-cancer activity has been well documented and which are regularly used are doxorubicin and SAHA.
# (§3) For T0 measurement, 24 hours after seeding the cells, 10 µL of 3-(4,5-Dimethyl-2-thiazolyl)-2,5-diphenyl-2H-tetrazolium (MTT) solution per well is added and incubation carried out for 3 hours at 37° C., 5% CO2, 95% air and 100% relative humidity, protected from light. Cells incubated with compounds for 48 hours are treated similarly except with the addition of 20 µl MTT solution per well and a subsequent incubation under the same conditions. After 3 hours of MTT incubation, well contents are aspirated carefully followed by addition of 150 µL DMSO per well. Plates are agitated to ensure solution of the formazan crystals in DMSO and absorbance read at 570 nm.
# (§4) Percent growth is calculated for each compound's concentration relative to the control and zero measurement wells (T0; viability right before compound addition). If a test well's O.D. value is greater than the T0 measurement for that cell line
# (§5) %Growth=(test−zero)/(control−zero)×100
# (§6) If a test well's O.D. value is lower than the T0 measurement for that cell line, then,
# (§7) %Growth=(test−zero)/zero×100
# [3] = test system: NCIH460; experiment: Anti-cancer screen (MTT), NCIH460; assay type: cell-based; settings: Homo sapiens, NCI-H460, 48 hours with compound, tested at 0.01-100 µM
# Procedure: as §1, §2, §3, §4, §5, §6, §7
# [4] = test system: HCT116; experiment: Anti-cancer screen (MTT), HCT116; assay type: cell-based; settings: Homo sapiens, HCT-116, 48 hours with compound, tested at 0.01-100 µM
# Procedure: as §1, §2, §3, §4, §5, §6, §7
# [5] = test system: NCIH460, HCT116, MDAMB-231/U 251; experiment: Anti-cancer screen, mean GI50 over the cell lines; assay type: cell-based; settings: in µM
# Procedure: as §1, §2, §3, §4
# [6] = 48 hours with compound, MTT, tested at 0.01-100 µM
structure (smiles),measurement,setting,value
"O=C(NCc1ccc(C(=O)N2CCOCC2)cc1)OCc1ccsc1 [Example 51, 3-Thienylmethyl[4-(morpholin-4-ylcarbonyl)benzyl]carbamate]",HDAC Inhibition 1 μM,[1],3.20
same,HDAC Inhibition 10 μM,[1],3.18
same,CC50,[2]; 48 h,> 100 µM
same,GI50,[2]; [6],> 100 µM
same,IC (TGI),[2]; [6],> 100 µM
same,GI50,[3],94.5 µM
same,IC (TGI),[3],> 100 µM
same,LC50,[3],> 100 µM
same,GI50,[4],> 100 µM
same,IC (TGI),[4],> 100 µM
same,LC50 (concentration giving 50% net cell kill relative to T0),[4],> 100 µM
"CS(=O)(=O)Oc1ccc(NC(=O)c2ccc(CNC(=O)OCc3cccs3)cc2)cc1 [Example 70, 4-[(4-{[(2-thienylmethyloxycarbonyl)amino]methyl}benzoyl)amino]phenylmethanesulfonate]",Mean GI50,[5],19.65
"O=C(CCCCCNC(=O)Cc1csc(NC(=O)OCc2c(F)c(F)c(F)c(F)c2F)n1)NO [Example 94, Pentafluorobenzyl[4-(2-{[6-(hydroxyamino)-6-oxohexyl]amino}-2-oxoethyl)-1,3-thiazol-2-yl]carbamate]",CC50,[2]; 48 h,84 µM
same,GI50,[2]; [6],19 µM
same,IC (TGI),[2]; [6],50 µM
same,Mean GI50,[5],25.66
same,GI50,[3],35 µM
same,IC (TGI),[3],67 µM
same,LC50,[3],> 100 µM
same,GI50,[4],23 µM
same,IC (TGI),[4],62 µM
same,LC50 (concentration giving 50% net cell kill relative to T0),[4],84 µM
"O=C(NCc1ccc(C(=O)NO)cc1)OCc1c(F)c(F)c(F)c(F)c1F [Example 29, Pentafluorobenzyl{4-[(hydroxyamino)carbonyl]benzyl}carbamate]",CC50,[2]; 48 h,> 100 µM
same,GI50,[2]; [6],3.1 µM
same,IC (TGI),[2]; [6],> 100 µM
same,Mean GI50,[5],1.5
same,GI50,[3],0.4 µM
same,IC (TGI),[3],22.5 µM
same,LC50,[3],82.5 µM
same,GI50,[4],0.98 µM
same,IC (TGI),[4],3.5 µM
same,LC50 (concentration giving 50% net cell kill relative to T0),[4],48 µM
O=C(CCCCCNC(=O)c1ccc(CNC(=O)OCc2cccs2)cc1)Nc1nnc(C2CC2)s1 [Example 103],CC50,[2]; 48 h,85 µM
same,GI50,[2]; [6],0.4 µM
same,IC (TGI),[2]; [6],18 µM
same,Mean GI50,[5],33.5
same,GI50,[3],60 µM
same,IC (TGI),[3],> 100 µM
same,LC50,[3],> 100 µM
same,GI50,[4],40 µM
same,IC (TGI),[4],> 100 µM
same,LC50 (concentration giving 50% net cell kill relative to T0),[4],> 100 µM
"COc1cc(COC(=O)NCc2ccc(C(=O)NO)cc2)cc(OC)c1OC [Example 36, 3,4,5-Trimethoxybenzyl{4-[(hydroxyamino)carbonyl]benzyl}carbamate]",CC50,[2]; 48 h,85 µM
same,GI50,[2]; [6],5.5 µM
same,IC (TGI),[2]; [6],10 µM
same,Mean GI50,[5],36.2
same,GI50,[3],68 µM
same,IC (TGI),[3],> 100 µM
same,LC50,[3],> 100 µM
same,GI50,[4],35 µM
same,IC (TGI),[4],60 µM
same,LC50 (concentration giving 50% net cell kill relative to T0),[4],85 µM
"CC(=O)N(O)C(=O)Cc1csc(NC(=O)OCc2cc(Br)cs2)n1 [Example 79, (4-Bromo-2-thienyl)methyl(4-{2-[acetyl(hydroxy)amino]-2-oxoethyl}-1,3-thiazol-2-yl)carbamate]",GI50,[2]; [6],0.4 µM
same,IC (TGI),[2]; [6],52 µM
same,CC50,[2]; [6],100 µM
same,Mean GI50,[5],20.1
same,GI50,[3],30 µM
same,IC (TGI),[3],74 µM
same,LC50,[3],> 100 µM
same,GI50,[4],30 µM
same,IC (TGI),[4],65 µM
same,CC50,[4]; read-out: HCT116 LC50,95 µM
"O=C(NCc1ccc(C(=O)N2CCN(Cc3ccc4c(c3)OCO4)CC2)cc1)OCc1c(F)cc(F)cc1F [Example 62, 2,4,6-Trifluorobenzyl(4-{[4-(1,3-benzodioxol-5-ylmethyl)piperazin-1-yl]carbonyl}benzyl)carbamate]",CC50,[2]; 48 h,> 100 µM
same,GI50,[2]; [6],2 µM
same,IC (TGI),[2]; [6],10 µM
same,Mean GI50,[5],1.7
same,GI50,[3],0.1 µM
same,IC (TGI),[3],8.5 µM
same,LC50,[3],> 100 µM
same,GI50,[4],3 µM
same,IC (TGI),[4],> 100 µM
same,LC50 (concentration giving 50% net cell kill relative to T0),[4],> 100 µM
"O=C(NCc1ccc(C(=O)Nc2nnc(C3CC3)s2)cc1)OCc1c(F)c(F)c(F)c(F)c1F [Example 56, Pentafluorobenzyl(4-{[(5-cyclopropyl-1,3,4-thiadiazol-2-yl)amino]carbonyl}benzyl)carbamate]",CC50,[2]; 48 h,65 µM
same,GI50,[2]; [6],0.8 µM
same,IC (TGI),[2]; [6],7 µM
same,Mean GI50,[5],0.5
same,GI50,[3],0.3 µM
same,IC (TGI),[3],0.8 µM
same,LC50,[3],> 100 µM
same,GI50,[4],0.5 µM
same,IC (TGI),[4],> 100 µM
same,LC50 (concentration giving 50% net cell kill relative to T0),[4],> 100 µM
"O=C(Cc1csc(NC(=O)OCc2cccnc2)n1)Nc1nc2ccccc2s1 [Example 11, Pyridin-3-ylmethyl{4-[2-(1,3-benzothiazol-2-ylamino)-2-oxoethyl]-1,3-thiazol-2-yl}carbamate]",CC50,[2]; 48 h,> 100 µM
same,GI50,[2]; [6],5 µM
same,IC (TGI),[2]; [6],10 µM
same,Mean GI50,[5],6
same,GI50,[3],7 µM
same,IC (TGI),[3],> 100 µM
same,LC50,[3],> 100 µM
same,GI50,[4],> 100 µM
same,IC (TGI),[4],> 100 µM
same,LC50 (concentration giving 50% net cell kill relative to T0),[4],> 100 µM
"CCOC(=O)CN(OC)C(=O)c1ccc(CNC(=O)OCc2cccs2)cc1 [Example 109, ethyl{methoxy[4-({[(2-thienylmethoxy)carbonyl]amino}-methyl)benzoyl]amino}acetate]",HDAC Inhibition 1 μM,[1],8.84
same,HDAC Inhibition 10 μM,[1],15.41
"O=C(Nc1nc(CC(=O)N2CCC(N3CCCCC3)CC2)cs1)OCc1cccnc1 [Example 13, Pyridin-3-ylmethyl{4-[2-(1,4′-bipiperidin-1′-yl)-2-oxoethyl]-1,3-thiazol-2-yl}carbamate]",CC50,[2]; 48 h,> 100 µM
same,GI50,[2]; [6],0.09 µM
same,IC (TGI),[2]; [6],> 100 µM
same,Mean GI50,[5],>100
same,GI50,[3],2.8 µM
same,IC (TGI),[3],25 µM
same,LC50,[3],> 100 µM
same,GI50,[4],> 100 µM
same,IC (TGI),[4],> 100 µM
same,LC50 (concentration giving 50% net cell kill relative to T0),[4],> 100 µM
"Nc1ccccc1NC(=O)c1ccc(CNC(=O)OCc2ccsc2)cc1 [Example 49, 3-Thienylmethyl(4-{[(2-aminophenyl)amino]carbonyl}benzyl)carbamate]",HDAC Inhibition 1 μM,[1],10.15
same,HDAC Inhibition 10 μM,[1],18.78
same,CC50,[2]; 48 h,82 µM
same,GI50,[2]; [6],31 µM
same,IC (TGI),[2]; [6],56 µM
same,GI50,[3],42 µM
same,IC (TGI),[3],96 µM
same,LC50,[3],> 100 µM
same,GI50,[4],2 µM
same,IC (TGI),[4],59 µM
same,LC50 (concentration giving 50% net cell kill relative to T0),[4],> 100 µM
"O=C(CCCNC(=O)Cc1csc(NC(=O)OCc2cccnc2)n1)NO [Example 88, Pyridin-3-ylmethyl[4-(2-{[4-(hydroxyamino)-4-oxobutyl]amino}-2-oxoethyl)-1,3-thiazol-2-yl]carbamate]",CC50,[2]; 48 h,> 100 µM
same,GI50,[2]; [6],6 µM
same,IC (TGI),[2]; [6],> 100 µM
same,Mean GI50,[5],>100
same,GI50,[3],> 100 µM
same,IC (TGI),[3],> 100 µM
same,LC50,[3],> 100 µM
same,GI50,[4],> 100 µM
same,IC (TGI),[4],> 100 µM
same,LC50 (concentration giving 50% net cell kill relative to T0),[4],> 100 µM
"CN1CCN(C(=O)c2ccc(CNC(=O)OCc3ccsc3)cc2)CC1 [Example 50, 3-Thienylmethyl{4-[(4-methylpiperazin-1-yl)carbonyl]benzyl}carbamate]",HDAC Inhibition 1 μM,[1],−3.95
same,HDAC Inhibition 10 μM,[1],1.45
same,CC50,[2]; 48 h,> 100 µM
same,GI50,[2]; [6],65 µM
same,IC (TGI),[2]; [6],> 100 µM
same,GI50,[3],64 µM
same,IC (TGI),[3],> 100 µM
same,LC50,[3],> 100 µM
same,GI50,[4],64 µM
same,IC (TGI),[4],> 100 µM
same,LC50 (concentration giving 50% net cell kill relative to T0),[4],> 100 µM
